For experiment [1], the target named is RAF proto-oncogene serine/threonine-protein kinase (Homo sapiens, UniProt P04049). The experiment can be described thus: Inhibition of c-RAF (unknown origin).
The target in experiment [2] is T1, Aurora kinase A (Homo sapiens, UniProt O14965).
T1 sequence (O14965 whole entry): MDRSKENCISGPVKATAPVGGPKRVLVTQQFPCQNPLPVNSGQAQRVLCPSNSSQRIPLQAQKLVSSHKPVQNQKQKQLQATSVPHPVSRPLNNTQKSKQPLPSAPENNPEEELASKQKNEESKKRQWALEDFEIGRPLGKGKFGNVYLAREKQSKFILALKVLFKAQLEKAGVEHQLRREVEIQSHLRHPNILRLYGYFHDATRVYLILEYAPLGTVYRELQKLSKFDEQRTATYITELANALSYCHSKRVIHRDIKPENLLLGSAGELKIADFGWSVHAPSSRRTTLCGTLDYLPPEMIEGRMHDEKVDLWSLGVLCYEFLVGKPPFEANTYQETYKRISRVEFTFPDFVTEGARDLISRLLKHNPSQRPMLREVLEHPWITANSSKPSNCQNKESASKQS
The experiment can be described thus: Inhibition of aurora A (unknown origin).

Experiment [3] is described as follows: cells. The settings on record: Homo sapiens, SR-786, 48 h.
Description: Antiproliferative activity against human SR786 cells incubated for 48 hrs by sulforhodamine B assay
Experiment [4] deals with MV4-11. Nature of the experiment: cells. The following applies: Homo sapiens, MV4-11, 48 h.
Description: Antiproliferative activity against human MV4-11 cells incubated for 48 hrs by sulforhodamine B assay
For experiment [5], the system named is SU-DHL-1. Nature of the experiment: cells. The settings on record: Homo sapiens, SU-DHL-1, 48 h.
Description: Antiproliferative activity against human SU-DHL1 cells incubated for 48 hrs by sulforhodamine B assay
The test system of experiment [6] is KARPAS-299. Nature of the experiment: cells. The following applies: Homo sapiens, KARPAS-299, 48 h.
Description: Antiproliferative activity against human KARPAS299 cells incubated for 48 hrs by sulforhodamine B assay
Experiment [7] is described as follows: cells. The settings on record: Homo sapiens, SUP-M2, 48 h.
Description: Antiproliferative activity against human SUP-M2 cells incubated for 48 hrs by sulforhodamine B assay
For experiment [8], the target named is BDNF/NT-3 growth factors receptor (Homo sapiens, UniProt Q16620). The experiment can be described thus: Inhibition of TRKB (unknown origin).
BDNF/NT-3 growth factors receptor, sequence (Q16620 whole entry): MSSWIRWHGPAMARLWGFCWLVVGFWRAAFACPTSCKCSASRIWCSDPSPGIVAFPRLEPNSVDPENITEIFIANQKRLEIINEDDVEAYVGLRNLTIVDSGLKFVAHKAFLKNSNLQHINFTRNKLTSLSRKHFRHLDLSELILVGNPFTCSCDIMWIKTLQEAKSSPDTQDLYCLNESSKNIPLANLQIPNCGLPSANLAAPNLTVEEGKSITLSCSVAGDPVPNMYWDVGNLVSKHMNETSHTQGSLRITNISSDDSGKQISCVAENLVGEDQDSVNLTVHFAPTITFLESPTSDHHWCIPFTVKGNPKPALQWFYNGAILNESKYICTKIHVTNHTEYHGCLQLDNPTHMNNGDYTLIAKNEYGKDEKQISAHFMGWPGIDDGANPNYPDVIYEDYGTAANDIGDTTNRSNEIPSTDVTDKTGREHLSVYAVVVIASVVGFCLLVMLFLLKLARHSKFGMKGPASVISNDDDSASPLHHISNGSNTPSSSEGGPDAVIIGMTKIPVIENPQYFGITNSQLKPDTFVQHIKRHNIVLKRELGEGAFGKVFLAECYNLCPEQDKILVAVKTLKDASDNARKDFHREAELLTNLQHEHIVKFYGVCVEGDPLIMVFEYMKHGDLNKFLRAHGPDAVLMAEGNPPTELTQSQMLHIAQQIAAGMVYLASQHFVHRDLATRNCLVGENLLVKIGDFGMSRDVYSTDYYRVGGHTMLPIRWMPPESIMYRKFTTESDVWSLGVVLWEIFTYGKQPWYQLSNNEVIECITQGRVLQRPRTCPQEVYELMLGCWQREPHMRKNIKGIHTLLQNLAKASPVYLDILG
In experiment [9] the target is High affinity nerve growth factor receptor (Homo sapiens, UniProt P04629). Nature of the experiment: Inhibition TRKA (unknown origin).
High affinity nerve growth factor receptor, sequence (P04629 whole entry): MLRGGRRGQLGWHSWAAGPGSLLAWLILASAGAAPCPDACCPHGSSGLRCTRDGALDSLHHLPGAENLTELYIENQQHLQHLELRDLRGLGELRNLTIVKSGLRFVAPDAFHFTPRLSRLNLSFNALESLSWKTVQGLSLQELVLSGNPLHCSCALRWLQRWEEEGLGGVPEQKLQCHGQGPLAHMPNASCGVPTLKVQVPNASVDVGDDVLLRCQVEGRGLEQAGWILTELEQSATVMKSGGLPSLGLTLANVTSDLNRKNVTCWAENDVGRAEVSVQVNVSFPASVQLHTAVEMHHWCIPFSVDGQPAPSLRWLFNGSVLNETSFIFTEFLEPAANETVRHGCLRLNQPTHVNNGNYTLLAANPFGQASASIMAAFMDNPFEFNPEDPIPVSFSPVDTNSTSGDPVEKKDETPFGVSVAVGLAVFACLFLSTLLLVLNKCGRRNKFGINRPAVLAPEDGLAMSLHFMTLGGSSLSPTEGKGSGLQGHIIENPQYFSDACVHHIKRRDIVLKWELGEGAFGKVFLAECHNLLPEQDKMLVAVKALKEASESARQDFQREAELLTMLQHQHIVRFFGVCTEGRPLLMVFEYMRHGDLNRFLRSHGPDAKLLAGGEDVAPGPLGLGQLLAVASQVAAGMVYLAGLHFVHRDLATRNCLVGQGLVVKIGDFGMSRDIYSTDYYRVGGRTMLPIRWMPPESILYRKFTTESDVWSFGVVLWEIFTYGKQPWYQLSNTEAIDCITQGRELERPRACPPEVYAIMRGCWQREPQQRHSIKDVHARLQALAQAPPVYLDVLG
Experiment [10] concerns K562. Nature of the experiment: Growth inhibition of human K562 cells. It is filed as functional, cell-based.
For experiment [11], the system named is KM12. The experiment can be described thus: cells. The following applies: Homo sapiens.
Description: Growth inhibition of human KM12 cells
The test system of experiment [12] is IMR-32. Nature of the experiment: Antiproliferative activity against human IMR32 cells by sulforhodamine B assay. It is filed as functional, cell-based. (The SRB assay estimates cell density from bound dye.)
In experiment [13] the test system is MIA PaCa-2. The experiment can be described thus: Antiproliferative activity against human MIAPaCa2 cells at 10 uM incubated for 48 hrs by MTT assay relative to control. The class given is functional. (In general: Formazan colour is commonly taken as a measure of viable cells.)
For experiment [14], the system named is BXPC-3. Nature of the experiment: Antiproliferative activity against human BxPC3 cells at 10 uM incubated for 48 hrs by MTT assay relative to control. It is filed as functional.
Experiment [15] has as its system PANC-1. The experiment can be described thus: Antiproliferative activity against human PANC1 cells at 10 uM incubated for 48 hrs by MTT assay relative to control. The class given is functional.

RAF proto-oncogene serine/threonine-protein kinase, sequence (P04049 whole entry): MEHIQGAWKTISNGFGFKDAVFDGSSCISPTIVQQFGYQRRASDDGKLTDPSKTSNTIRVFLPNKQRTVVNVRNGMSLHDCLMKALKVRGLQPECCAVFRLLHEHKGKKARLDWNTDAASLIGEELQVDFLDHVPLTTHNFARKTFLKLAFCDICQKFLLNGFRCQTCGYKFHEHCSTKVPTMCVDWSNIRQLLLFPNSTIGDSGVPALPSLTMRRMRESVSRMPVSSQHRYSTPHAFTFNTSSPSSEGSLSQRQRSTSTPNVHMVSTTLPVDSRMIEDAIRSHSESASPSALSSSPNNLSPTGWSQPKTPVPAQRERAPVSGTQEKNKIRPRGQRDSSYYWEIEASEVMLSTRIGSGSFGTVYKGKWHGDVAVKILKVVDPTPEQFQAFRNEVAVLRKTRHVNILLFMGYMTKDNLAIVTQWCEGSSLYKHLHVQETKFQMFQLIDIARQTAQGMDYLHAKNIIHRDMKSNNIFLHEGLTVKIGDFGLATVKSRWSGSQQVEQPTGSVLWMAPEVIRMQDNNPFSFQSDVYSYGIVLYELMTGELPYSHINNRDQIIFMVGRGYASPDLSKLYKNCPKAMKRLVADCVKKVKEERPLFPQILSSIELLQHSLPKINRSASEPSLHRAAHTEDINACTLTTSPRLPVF

Take `Cc1cn(-c2cc(C(=O)Nc3cccc(Nc4ccc5c(c4)NC(=O)/C5=C\c4ccc[nH]4)c3)cc(C(F)(F)F)c2)cn1`: the IC50 (usually the concentration needed to halve the response being measured) in experiment [1] was 116 nM; in [2], 15 nM.
With `CN1CCN(c2ccc(C(=O)Nc3n[nH]c4ccc(Cc5cc(F)cc(F)c5)cc34)c(NC3CCOCC3)c2)CC1` [ENTRECTINIB], the IC50 in [3] is 81 nM; in [4], 81 nM; in [5], 20 nM; in [6] it was 31 nM; in [7], 41 nM.
Regarding `CCN1CCN(Cc2ccc(NC(=O)Nc3nc4ccc(Oc5ccnc(C(=O)NC)c5)cc4s3)cc2C(F)(F)F)CC1`, the IC50 in experiment [8] came to 4.42 nM; in [9] it was 3.81 nM; in experiment [11] it was 19 nM. Further, in [10], it took 51.4 nM to inhibit growth by half (GI50).
In turn, `C[C@H](Oc1cc(-c2cnn(C3CCNCC3)c2)cnc1N)c1c(Cl)ccc(F)c1Cl` returned a 50% inhibitory concentration (IC50) in experiment [12] of 100 nM.
Turning to `CN(C)S(=O)(=O)c1cc(-c2cnc3[nH]cc(-c4ccncc4)c3c2)cnc1N`, the Activity was <20% in [13], <20% in [14] and 30% in [15].

The values above are taken from ChEMBL document CHEMBL4346723, “Targeting tropomyosin receptor kinase for cancer therapy” (Eur J Med Chem, 2019).
